Measurements taken from paper PMC10880585 (ACS infectious diseases, 2023).
Like-named read-outs stand apart in the source and are kept apart here.

Columns and labels:
[1] = test system: P. falciparum strain 3D7; test: P. falciparum growth inhibition assay; type: cell-based, Plasmodium falciparum; settings: read-out: Pf IC50
[2] = target: T1, P. falciparum DXR (Plasmodium falciparum, UniProt O96693); test: biochemical
T1 sequence (O96693 73-488): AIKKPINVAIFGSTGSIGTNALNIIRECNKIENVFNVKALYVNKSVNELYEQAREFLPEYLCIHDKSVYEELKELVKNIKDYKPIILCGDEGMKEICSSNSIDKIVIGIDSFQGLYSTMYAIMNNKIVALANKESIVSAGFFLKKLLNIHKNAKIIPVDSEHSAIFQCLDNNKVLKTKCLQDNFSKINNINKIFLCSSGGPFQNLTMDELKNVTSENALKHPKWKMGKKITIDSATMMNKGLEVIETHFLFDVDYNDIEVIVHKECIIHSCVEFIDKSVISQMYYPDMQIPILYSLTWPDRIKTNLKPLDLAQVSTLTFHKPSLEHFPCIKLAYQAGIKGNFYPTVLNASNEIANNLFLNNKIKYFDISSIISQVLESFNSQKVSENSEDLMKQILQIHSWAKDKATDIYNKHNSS

[3] = test system: HAD1 mutant P. falciparum strain; test: Growth inhibition of had1 mutant P. falciparum; type: cell-based, Plasmodium falciparum; settings: had1 mutant vs wild-type 3D7
[4] = following iv dosing; cited from earlier work
[5] = test system: P. falciparum strain 3D7; test: IPP rescue of P. falciparum growth inhibition; settings: 250 μM IPP added to culture media, 72 h
[6] = test system: HepG2 cells; test: HepG2 cytotoxicity assay; settings: for IC50: Homo sapiens, HepG2, 24 h, read-out: HepG2 IC50; for cytotoxicity against HepG2: result in words
[7] = Metabolic stability in mouse liver microsomes
[8] = target: T1, P. falciparum DXR
[9] = Plasmodium falciparum, 3D7, Erythrocyte, 72 h

`CC(C)(C)C(=O)OCOP(=O)(/C=C/CN(O)C(=O)Cc1ccccc1)OCOC(=O)C(C)(C)C` [13b, [({[(2,2-Dimethylpropanoyl)oxy]methoxy}[(1E)-3-(N-hydroxy-2-phenylacetamido)prop-1-en-1-yl]phosphoryl)oxy]-methyl 2,2-Dimethylpropanoate] showed an IC50 [1, 9] of 304 nM.
In the case of `O=C(CCc1ccccc1)N(O)C/C=C/P(=O)(O)O` [11c, Sodium Hydrogen [(1E)-3-(N-hydroxy-3-phenylpropanamido)prop-1-en-1-yl]phosphonate], the IC50 [1, 9] is reported as 10800 nM and the IC50 [2] is reported as 1340 nM.
For `CCOP(=O)(/C=C/CN(O)C(=O)c1ccccc1)OCC` [10a, Diethyl [(1E)-3-(N-Hydroxy-1-phenylformamido)prop-1-en-1-yl]phosphonate], the IC50 [1, 9] was over 319000 nM.
For `O=CN(O)CCCP(=O)(O)O` [compound 1, Fosmidomycin, reference compound], the IC50 [1, 9] is listed as 1020 nM, the “resistance of parasites with elevated intracellular DXP” value (from here on “resistance of parasites”) [3] is listed as “higher resistance” and the renal excretion [4] is listed as 85%. The “rescue of treated parasites by IPP” value [5] was “rescued”.
`CCOP(=O)(/C=C/CN(O)C(=O)CCc1ccccc1)OCC` [10c, Diethyl [(1E)-3-(N-Hydroxy-3-phenylpropanamido)prop-1-en-1-yl]phosphonate] gave an IC50 [1, 9] of over 293000 nM.
In the case of `CC(=O)N(O)CCCP(=O)(O)O` [compound 2, FR-900098, reference compound], the IC50 ([1]; […], 3 days, PicoGreen) is reported as 511 nM.
Compound `CC(C)(C)C(=O)OCOP(=O)(/C=C/CN(O)C(=O)CCCc1ccccc1)OCOC(=O)C(C)(C)C` [13d, [({[(2,2-Dimethylpropanoyl)oxy]methoxy}[(1E)-3-(N-hydroxy-4-phenylbutanamido)prop-1-en-1-yl]phosphoryl)-oxy]methyl 2,2-Dimethylpropanoate] has an IC50 [1, 9] of 4550 nM.
`CCOP(=O)(/C=C/CN(O)C(=O)Cc1ccccc1)OCC` [10b, Diethyl [(1E)-3-(N-Hydroxy-2-phenylacetamido)prop-1-en-1-yl]phosphonate] gave an IC50 [1, 9] of 337000 nM.
For `CC(C)(C)C(=O)OCOP(=O)(/C=C/CN(O)C(=O)c1ccccc1)OCOC(=O)C(C)(C)C` [13a, [({[(2,2-Dimethylpropanoyl)oxy]methoxy}[(1E)-3-(N-hydroxy-1-phenylformamido)-prop-1-en-1-yl]phosphoryl)oxy]-methyl 2,2-dimethylpropanoate], the IC50 [1, 9] was 200 nM, the “resistance of parasites” value [3] was “resistant” and the IC50 [6] was over 50 µM. For the same compound, the “cytotoxicity against HepG2” value [6] was “non-toxic”, the “rescue of treated parasites by IPP” value [5] was “rescued” and the half-life at 1 μM ([7]; mouse, liver microsomes, pH 7.4) was under 5 min.
With `O=C(Cc1ccccc1)N(O)C/C=C/P(=O)(O)O` [11b, Sodium Hydrogen [(1E)-3-(N-Hydroxy-2-phenylacetamido)prop-1-en-1-yl]phosphonate] the IC50 [1, 9] was 468 nM and the IC50 [2] was 170 nM.
In the case of `O=C(CCCc1ccccc1)N(O)C/C=C/P(=O)(O)O` [11d, Sodium Hydrogen [(1E)-3-(N-Hydroxy-4-phenylbutanamido)prop-1-en-1-yl]phosphonate], the IC50 [1, 9] is reported as 4980 nM and the IC50 ([8]; read-out: Pf DXR IC50) is reported as 898 nM.
For `N.N.O=C(c1ccccc1)N(O)C/C=C/P(=O)(O)O` [compound 11a, Diammonium [(1E)-3-(N-Hydroxy-1-phenylformamido)-prop-1-en-1-yl]phosphonate], the IC50 [1, 9] was 369 nM, the “resistance of parasites” value [3] was “resistant” and the IC50 [6] was over 50 µM. The “cytotoxicity against HepG2” value [6] was “non-toxic”, the “rescue of treated parasites by IPP” value [5] was “rescued” and the “time stable in MLM” value ([7]; mouse liver microsomes) was “over 1 h”. The “improvement in activity against the enzyme” value ([8]; 11a vs saturated compound 4) was 2 fold.
Work on `CCOP(=O)(/C=C/CN(O)C(=O)CCCc1ccccc1)OCC` [10d, Diethyl [(1E)-3-(N-Hydroxy-4-phenylbutanamido)prop-1-en-1-yl]phosphonate] yielded an IC50 [1, 9] of 31200 nM.
